In brackets after ≈: the same amount, converted by molar mass. Several values for one entry are separate records, joined by “and”; a condition that tells them apart may be missing. Identical values can stand only once. Marks after values point to notes of the source that are not given here.
Legend:
[1] = Clinical pharmacokinetics, repeat inhaled dose in healthy subjects (Cohort 2); format: in vivo, human
Excerpt: (§1) Part one consisted of a single dose escalation study (Cohort 1) and a repeat dose study (Cohort 2) of inhaled PC945 in healthy subjects. Part two comprised a single dose study of inhaled PC945 in subjects with mild asthma (Cohort 3). The doses selected were predicted to achieve target lung concentrations above the IC90/MIC90 for A. fumigatus (based on data from a range of in vitro and in vivo systems) throughout a 24‐hour period and with a suitable safety margin based on animal toxicology data.
Nine healthy subjects (four males and five females; mean age: 33.2 years, mean weight: 66.5 kg, mean BMI: 23.53 kg/m^2) whose forced expiratory volume over 1 second (FEV1) and forced vital capacity (FVC) were ≥80% of predicted values with an FEV1/FVC ratio >0.7, received once daily doses of PC945 5 mg or placebo for 7 days (Cohort 2, PC945:placebo = 2:1).
(§2) Serial blood samples were collected to determine plasma PC945 concentrations. For the single dose study in healthy subjects and in subjects with mild asthma, blood samples were collected predose and at 0.25, 0.5, 1, 2, 4, 6, 8, 24, 30, and 48 hours postend of inhalation and at the follow‐up visit. For the repeat dose study, blood samples were collected (a) predose and at 0.25, 0.5, 1, 2, 4, 6, 8, 10, 12, and 24 hours postend of inhalation on Days 1 and 7, and 30 and 48 hours on Day 7; (b) predose on Days 5 and 6; (c) at the follow‐up visit.
Attainment of steady state was assessed by visual inspection of the predose plots during the 7‐day treatment period in human subjects.

[2] = In vitro plasma protein binding; format: in vitro ADME; details: 0.1‐50 µmol/L
Protocol: Plasma protein binding of PC945 was determined by […] in pooled plasma samples from human, dog, rat, and mouse. PC945 was tested at 0.1, 1, 5, 25, and 50 µmol/L in plasma for each species. PC945‐containing plasma samples were centrifuged at 238 859 g for 20 hours at 37°C. Supernatant was removed and diluted. The concentration of unbound PC945 was determined using LC‐MS/MS, from which the extent of protein binding was calculated.

CYP3A4/5 = experiment: CYP inhibition in pooled human liver microsomes; format: in vitro ADME
[3] = Clinical pharmacokinetics, single ascending inhaled dose in healthy subjects (Cohort 1); format: in vivo, human; details: for AUC0–24h / C max / AUC0–∞ / t ½: geometric mean (CV%); for t max: median (range), postend of inhalation
Protocol: This PC945 first‐in‐human clinical trial (ClinicalTrials.gov Identifier: NCT02715570) was a two‐part randomized, placebo‐controlled study to assess the safety and tolerability of PC945 in both healthy subjects and subjects with mild asthma, conducted at Parexel Early Phase Clinical Unit (Harrow, UK). The study was considered single‐blind as the appearance of active and placebo doses were different, however, it was conducted in a double‐blind manner (employing separate dosing and assessment teams).
as §1
In Cohort 1, 11 healthy subjects (three males and eight females; mean age: 48.5 years, mean weight: 65.32 kg, mean body mass index [BMI]: 23.62 kg/m^2), attended the single ascending dose study. Eight healthy subjects started the study in which two subjects were randomized to each of the four ascending dose treatment sequences (Table 1); two subjects withdrew due to adverse events unrelated to study medication and both were replaced. One of the replacement subjects subsequently withdrew from the study for personal reasons and was replaced by another subject (Figure 1). Overall, six subjects each received three of four doses of PC945 (0.5, 2, 5, and 10 mg) and one dose of placebo. These doses were administered with a minimum of 13 days interval to allow for washout.
as §2

[4] = test system: CYP1A2, 2B6, 2C8, 2C9, 2C19, 2D6; experiment: CYP inhibition in pooled human liver microsomes, other isoforms; format: in vitro ADME
Protocol: PC945 and posaconazole (Sigma‐Aldrich, UK) were added to the pooled human liver microsomal samples (Pharmaron Rushden, UK) at concentrations of 0, 0.03, 0.1, 0.3, 1, 3, and 5 μmol/L. The mixtures were preincubated at 37°C for 0 or 30 minutes before the addition of selective CYP substrates. Microsomal reactions were terminated by adding 100 μL of cold (4°C) methanol containing appropriate internal standard. Aliquots (150 μL) of each sample were centrifuged and the supernatant was used for substrate analysis by ultra‐performance liquid chromatography with tandem mass spectrometry (UPLC‐MS/MS) on the day of incubations.
Change in substrate concentration was measured to determine the extent of CYP‐isoform inhibition. The 30‐minute preincubations were performed to determine whether there was time‐dependent inhibition of any CYP isoform (CYP1A2, 2B6, 2C8, 2C9, 2C19, 2D6, and 3A4/5). Untreated control contained only solvent, dimethyl sulfoxide (≤0.5% [v/v]). Positive control contained a chemical inhibitor selective for each CYP enzyme in the […].

[5] = Rat lung tissue concentration after 14 days of inhaled dosing; format: in vivo, rats (Han Wistar); details: for Lung concentration: lungs ~22 hours after final dose (Day 15)
Protocol: Portions of rat lung tissue were homogenized in methanol:water (50:50; 15 mL for 1 g tissue). PC945 concentrations in tissue homogenates were analyzed using LC‐MS/MS. A control rat lung sample (B&K Universal Ltd, Hull, UK) was used as standards and quality control.

A. fumigatus infection = test system: A. fumigatus infection; parameters: method as in PMID 31263150; details: in vitro human alveolus bilayer model; cited from earlier work
[6] = healthy subjects, 5 mg once daily, Day 1, geometric mean (CV%)
[7] = healthy subjects, 5 mg once daily, Day 7, geometric mean (CV%)
[8] = substrate midazolam, 30‐minute preincubation

Cc1cc(N2CCN(c3ccc(C(=O)Nc4ccc(F)cc4)cc3)CC2)ccc1OC[C@@H]1CO[C@@](Cn2cncn2)(c2ccc(F)cc2F)C1 [PC945]
AUC0–24h [1, 6]: 6510 (60.0) pg*h/mL
C max [1, 6]: 462 (68.0) pg/mL
t max ([1]; healthy subjects, 5 mg once daily, Day 1, median (range)): 2 h and 2.10 (2.08‐4.08) h
time of C max postend of inhalation ([1]; healthy subjects, 5 mg once daily, Day 7): 45 min
C max [1, 7]: 951 (58.7) pg/mL
t ½ [1, 7]: 132 (22.7) h
t max ([1]; healthy subjects, 5 mg once daily, Day 7, median (range)): 0.745 (0.240‐10.1) h
Cmax ([1]; human, inhaled doses, read-out: C max values obtained with inhaled doses): < 2 nM
Predicted time to steady state ([1]; once daily dosing, human): approximately 5 weeks
Mean percentage protein bound ([2]; dog plasma): 91% and 91.1%
Mean percentage protein bound ([2]; human plasma): 96.6%
Mean percentage protein bound ([2]; mouse plasma): 96.2%
Mean percentage protein bound ([2]; rat plasma): 97.8%
Shift in potency for CYP3A4/5 following preincubation (CYP3A4/5): fivefold
IC50, CYP3A4/5 (CYP3A4/5; microsomes): 0.168 µg/mL (≈ 0.246 µM)
IC50 (CYP3A4/5; [8]): 17 nM
IC50, CYP3A4/5 (CYP3A4/5; [8]): 0.0116 µg/mL (≈ 0.017 µM)
IC50 (CYP3A4/5; substrate midazolam, without preincubation, pooled human liver microsomes): 85 nM
Increase in C max for a doubling in dose ([3]; single doses 0.5 to 10 mg, 90% CI 1.54, 2.02): 1.77 fold
Increase in AUC0–24h for a doubling in dose ([3]; single doses 0.5 to 10 mg, 90% CI 1.64, 2.15): 1.88 fold
AUC0–24h ([3]; single inhaled 0.5 mg): 726 (73.4) ^a pg•h/mL
C max ([3]; single inhaled 0.5 mg): 54.7 (64.8) ^a pg/mL
AUC0–∞ ([3]; single inhaled 0.5 mg, n = 2): 1480 (7.41) ^b pg•h/mL
t ½ ([3]; single inhaled 0.5 mg, n = 2, considered unreliable): 36.9 (24.1) ^b h
t max ([3]; single inhaled 0.5 mg): 1 h and 1.10 (0.250‐2.10) ^a h
AUC0–24h ([3]; single inhaled 2 mg): 1990 (102) pg•h/mL
C max ([3]; single inhaled 2 mg): 128 (107) pg/mL
AUC0–∞ ([3]; single inhaled 2 mg, n = 3): 3140 (175) ^c pg•h/mL
t ½ ([3]; single inhaled 2 mg, n = 3, considered unreliable): 27.9 (58.4) ^c h
t max ([3]; single inhaled 2 mg): 4 h and 4.11 (2.09‐8.11) h
AUC0–24h ([3]; single inhaled 5 mg): 5440 (48.0) pg•h/mL
C max ([3]; single inhaled 5 mg): 322 (51.1) pg/mL
t ½ ([3]; single inhaled 5 mg, n = 4, considered unreliable): 37.3 (36.4) ^d h
t max ([3]; single inhaled 5 mg): 5 h and 5.10 (2.08‐8.12) h
C max ([3]; single inhaled 10 mg): 619 (39.1) pg/mL
t ½ ([3]; single inhaled 10 mg, considered unreliable): 110 (16.5) h
t max ([3]; single inhaled 10 mg): 2 h and 2.13 (0.330‐6.15) h
Time‐dependent effect on other CYP isoforms ([4]; 30‐minute preincubation): no time‐dependent effect
Cytochrome P450 inhibitory interaction, isoforms other than CYP3A4/5 ([4]; up to 5 μmol/L): only cytochrome P450 inhibitory interaction observed for PC945 was that on CYP3A4/5 substrates
Ratio lung tissue concentration (Day 15)/plasma C max (Day 14) ([5]; female rats, 2.0 mg/kg/day): 2610
Lung concentration ([5]; female rats, 2.0 mg/kg/day for 14 days): 50 100 ng/mL
Ratio lung tissue concentration (Day 15)/plasma C max (Day 14) ([5]; female rats, 7.1 mg/kg/day): 2740
Lung concentration ([5]; female rats, 7.1 mg/kg/day for 14 days): 138 000 ng/mL
Ratio lung tissue concentration (Day 15)/plasma C max (Day 14) ([5]; female rats, 16.6 mg/kg/day): 2340
Lung concentration ([5]; female rats, 16.6 mg/kg/day for 14 days): 216 000 ng/mL
Mean lung:plasma ratio ([5]; male rats): ~ 4300 fold
Ratio lung tissue concentration (Day 15)/plasma C max (Day 14) ([5]; male rats, 2.0 mg/kg/day): 3450
Lung concentration ([5]; male rats, 2.0 mg/kg/day for 14 days): 42 400 ng/mL
Ratio lung tissue concentration (Day 15)/plasma C max (Day 14) ([5]; male rats, 7.1 mg/kg/day): 5020
Lung concentration ([5]; male rats, 7.1 mg/kg/day for 14 days): 119 000 ng/mL
Ratio lung tissue concentration (Day 15)/plasma C max (Day 14) ([5]; male rats, 16.6 mg/kg/day): 4280
Lung concentration ([5]; male rats, 16.6 mg/kg/day for 14 days): 329 000 ng/mL
Lung concentration relative to plasma ([5]; rats, all dose levels, after 14‐day inhaled dosing): > 2000 fold
Effect on A. fumigatus infection (A. fumigatus infection): inhibit A. fumigatus infection

— article PMC7749516, “Safety and nonclinical and clinical pharmacokinetics of PC945, a novel inhaled triazole antifungal agent” (Pharmacology Research & Perspectives, 2020)
